This is an account of results in patent US12441985B2, “Methods for making insulin in vivo” (priority 2009, dated 2025).

Several values for one entry are separate records, joined by “and”; a condition that tells them apart may be missing. Identical values can stand only once. Like-named read-outs stand apart in the source and are kept apart here.

Assay type in all cases: cell-based
Assay [1] has as its system human embryonic stem cells line H1. Particulars: for type of insulin expressing cells formed: 500 nM, after six days; for GCG (glucagon expressing cells), percentage of the total cell population / INS (single insulin expressing cells), percentage of the total cell population / INS/GCG (insulin and glucagon co-expressing cells), percentage of the total cell population / Synaptophysin, percentage of the total cell population: Stage 4 six days, TPB 500 nM, ILV 500 nM, GÖ 6976 5 μM, FACS. Here is the method:
Other protein kinase C activators were also tested. These were Indolactam V (ILV) (Axxora; Cat #ALX-420-011-C300) and phorbol-12-myristate-13-acetate (PMA) (Calbiochem; Cat #524400).

Assay [2] has the same test system. The assay can be described thus: FACS after six, nine or twelve days of Stage 4 TPB treatment (Example 3). Particulars: 500 nM TPB. The procedure:
In another experiment, cells of the human embryonic stem cells line H1 were cultured on […]® (1:30 dilution) coated dishes with RPMI medium+0.2% FBS+100 ng/ml activin A+20 ng/ml WNT-3a for one day followed by treatment with RPMI media+0.5% FBS+100 ng/ml activin A for an additional two days (Stage 1), then • DMEM/F12+2% FBS+50 ng/ml FGF7 for three days (Stage 2), then • DMEM-High glucose+1% B27+50 ng/ml FGF7+0.25 μM Cyclopamine-KAAD+2 μM Retinoic acid (RA)+100 ng/ml of Noggin+20 ng/ml Activin A+a p38 kinase inhibitor (JNJ3026582, at 2.5 μM) for four days (Stage 3), then • Treatment 10: DMEM-High glucose+1% B27+100 ng/ml Noggin+1 μM ALK5 inhibitor II+500 nM TPB for six days (Stage 4, Treatment 10), or • Treatment 11: DMEM-High glucose+1% B27+100 ng/ml Noggin+1 μM ALK5 inhibitor II+500 nM TPB for nine days (Stage 4, Treatment 11), or • Treatment 12: DMEM-High glucose+1% B27+100 ng/ml Noggin+1 μM ALK5 inhibitor II+500 nM TPB for twelve days (Stage 4, Treatment 12)

Assay [3] has the same test system. The assay can be described thus: FACS and immunocytochemistry after Stage 4 treatment with different concentrations of TPB (Example 1). Particulars: for INS, percentage of the total cell population / NKX6.1, percentage of the total cell population / NKX6.1/INS, percentage of the total cell population / Synaptophysin, percentage of the total cell population: Stage 4 six days. The procedure: In a separate experiment, cells of the human embryonic stem cells line H1 were cultured on MATRIGEL® (1:30 dilution) coated dishes with RPMI medium+0.2% FBS+100 ng/ml activin A+20 ng/ml WNT-3a for one day followed by treatment with RPMI media+0.5% FBS+100 ng/ml activin A for an additional two days (Stage 1), then • a. DMEM/F12+2% FBS+50 ng/ml FGF7 for three days (Stage 2), then • b. DMEM-High glucose+1% B27+0.25 μM Cyclopamine-KAAD+2 μM Retinoic acid (RA)+100 ng/ml of Noggin for four days (Stage 3), then • c. Treatment 1: DMEM-High glucose+1% B27+100 ng/ml Noggin+1 μM ALK5 inhibitor II+500 nM TBP for six days (Stage 4, Treatment 1), or • d. Treatment 2: DMEM-High glucose+1% B27+100 ng/ml Noggin+1 μM ALK5 inhibitor II+100 nM TBP for six days (Stage 4, Treatment 2), or • e. Treatment 3: DMEM-High glucose+1% B27+100 ng/ml Noggin+1 μM ALK5 inhibitor II+20 nM TBP for six days (Stage 4, Treatment 3), or • f. Treatment 4: DMEM-High glucose+1% B27+100 ng/ml Noggin+1 μM ALK5 inhibitor II for six days (Stage 4, Treatment 4).
Immunocytochemistry analysis was used to assess the effects of the different concentrations of TPB on the formation of the cells of the present invention. […] FACS analysis confirmed that both treatments gave rise to 12% single insulin expressing cells in vitro and […] of that population also expressed NKX6.1 (Table 1—NKX6.1/INS expressing cells were 2.4% of the total population).

The test system of assay [4] is human embryonic stem cell line H1. Nature of the assay: Pancreatic endoderm marker expression after Stage 3 TPB treatment (Example 6). Here is the method:
Briefly, cells of the human embryonic stem cell line H1 were cultured on MATRIGEL® (1:30 dilution) coated dishes and RPMI medium supplemented with 0.2% FBS, 100 ng/ml activin A and 20 ng/ml WNT-3a for one day, followed by treatment with RPMI media supplemented with 0.5% FBS and 100 ng/ml activin A, for an additional two days (Stage 1), then • DMEM/F12+2% FBS+50 ng/ml FGF7 for three days (Stage 2), then • T1: DMEM-High glucose+1% B27+0.25 μM Cyclopamine-KAAD+2 μM Retinoic acid (RA)+100 ng/ml of Noggin+FGF10 50 ng/ml for four days (Stage 3, T1) or, • T2: DMEM-High glucose+1% B27+0.25 μM Cyclopamine-KAAD+2 μM Retinoic acid (RA)+100 ng/ml of Noggin+FGF10 50 ng/ml+100 nM TPB for four days (Stage 3, T2), then • DMEM-High glucose+1% B27+100 ng/ml Noggin+1 μM ALK5 inhibitor II for six days (Stage 4)
NKX6.1 was undetectable by immunohistochemistry.

In assay [5] the test system is human embryonic stem cells line H1. Nature of the assay: Immunocytochemistry of insulin and glucagon expression after Stage 4 TPB treatment (Example 1). The procedure: Cells of the human embryonic stem cells line H1 were cultured on MATRIGEL® (1:30 dilution) (BD Biosciences; Cat #356231)-coated dishes with RPMI medium (Invitrogen; Cat #: 22400)+0.2% FBS+100 ng/ml activin A (PeproTech; Cat #120-14)+20 ng/ml WNT-3a (R&D Systems; Cat #1324-WN/CF) for one day followed by treatment with RPMI media+0.5% FBS+100 ng/ml activin A for an additional two days (Stage 1), then, • DMEM/F12 (Invitrogen; Cat #11330-032)+2% FBS+50 ng/ml FGF7 (PeproTech; Cat #100-19) for three days (Stage 2), then • DMEM-High glucose (Invitrogen; Cat #10569)+1% B27+50 ng/ml FGF7+0.25 μM Cyclopamine-KAAD (Calbiochem; Cat #239804)+100 ng/ml Noggin (R&D Systems; Cat #3344-NG) for four days (Stage 3), then • DMEM-High glucose+1% B27 (Invitrogen; Cat #0791)+100 ng/ml Noggin+1 μM ALK5 inhibitor II (Axxora; Cat #ALX-270-445)+500 nM TBP ((2S, 5S)-(E, E)-8-(5-(4-(Trifluoromethyl)phenyl)-2,4-pentadiemoylamino) benzolactam) (Calbiochem; Cat #565740) for six days (Stage 4).
As a control, separate populations of cells were treated with DMEM-High glucose+1% B27+100 ng/ml Noggin+1 μM ALK5 inhibitor II for six days (Stage 4, control group). […] Glucagon-expressing cells were also noted in the cultures that received TBP treatment. Most of the glucagon-expressing cells also co-expressed insulin (FIG. 1 panel A and B). […]

[6] abbreviates: Stage 4 for nine days (Treatment 11).
The mark [7] stands for this setting: Stage 4 for six days (Treatment 10).
The mark [8] stands for this setting: Stage 4 for twelve days (Treatment 12).
Where [9] appears, read: cultures treated with TPB, immunocytochemistry.
[10] abbreviates: both 500 nM and 100 nM TPB treatments, FACS.
Where [11] appears, read: 100 nM TPB at Stage 3 for four days (T2) compared to control group (T1).

With `CC(C)[C@H]1C(=O)N[C@H](CO)Cc2c[nH]c3cccc(c23)N1C` [ILV, Indolactam V], the “type of insulin expressing cells formed” value in assay [1] (immunocytochemistry) is “cells co-expressing insulin and glucagon”. Also, in assay [1], the “GCG (glucagon expressing cells), percentage of the total cell population” value was 12% and 12.6%; the “INS (single insulin expressing cells), percentage of the total cell population” value worked out at 3%; the “INS/GCG (insulin and glucagon co-expressing cells), percentage of the total cell population” value is on record as 12.9%; the “Synaptophysin, percentage of the total cell population” value (shortened to “Synaptophysin, percentage”) was found to be 56.8%.

For `CCCCCCCCCCCCCC(=O)O[C@@H]1[C@@H](C)[C@@]2(O)[C@@H](C=C(CO)C[C@]3(O)C(=O)C(C)=C[C@@H]23)[C@@H]2C(C)(C)[C@]12OC(C)=O` [PMA, phorbol-12-myristate-13-acetate], the “type of insulin expressing cells formed” value in assay [1] (immunocytochemistry) was “cells co-expressing insulin and glucagon”.

On to `CC(C)[C@H]1C(=O)N[C@H](CO)Cc2cc(NC(=O)/C=C/C=C/c3ccc(C(F)(F)F)cc3)ccc2N1C` [TPB, (2S, 5S)-(E, E)-8-(5-(4-(Trifluoromethyl)phenyl)-2,4-pentadiemoylamino) benzolactam], for which, in assay [2] (setting [6]), the “Glucagon, percentage of the total cell population” value is 6.6%; the “Insulin, percentage of the total cell population” value is reported as 10.0%; the “Insulin/Glucagon, percentage of the total cell population” value (“Insulin/Glucagon, percentage” for short) is 7.8%; the “NKX6.1, percentage of the total cell population” value (shortened to “NKX6.1, percentage”) was found to be 33.5%. Besides, in assay [2] (setting [6]), the “NKX6.1/Insulin, percentage of the total cell population” value (from here on “NKX6.1/Insulin, percentage”) was determined as 1.0% and the “Synaptophysin, percentage” value stood at 43.5%. Moreover, in assay [2] (setting [7]), the “Glucagon, percentage of the total cell population” value stood at 2.0%; the “Insulin, percentage of the total cell population” value was found to be 27.8%; the “Insulin/Glucagon, percentage” value turned out to be 16.4%; the “NKX6.1, percentage” value is given as 44.2%. In assay [2] (setting [7]), the “NKX6.1/Insulin, percentage” value stood at 11.0% and the “Synaptophysin, percentage” value worked out at 49.7%. For the same compound, in assay [2] (setting [8]), the “Glucagon, percentage of the total cell population” value was determined as 4%; the “Insulin, percentage of the total cell population” value is listed as 4.4%; the “Insulin/Glucagon, percentage” value is 6.3%; the “NKX6.1, percentage” value stood at 32.5%. For the same compound, in assay [2] (setting [8]), the “NKX6.1/Insulin, percentage” value came to 1.0% and the “Synaptophysin, percentage” value turned out to be 37.6%. Besides, the “type of insulin expressing cells formed” value in assay [1] (immunocytochemistry) was “demonstrated the formation of single insulin expressing cells”. Moreover, in assay [1], the “GCG (glucagon expressing cells), percentage of the total cell population” value is given as 4.6%; the “INS (single insulin expressing cells), percentage of the total cell population” value is 12%; the “INS/GCG (insulin and glucagon co-expressing cells), percentage of the total cell population” value amounted to 7.1%; the “Synaptophysin, percentage” value is on record as 30.6%. In assay [1] (setting [9]), the “insulin expressing cells that co-expressed NEUROD” value is listed as “majority”, the “insulin expressing cells that co-expressed NKX6.1” value is on record as 20%, the “insulin expressing cells that co-expressed PDX1” value is given as 20% and the “insulin expressing cells that co-expressed somatostatin or ghrelin (GHRL)” value is given as “Very few”. Also, in assay [3] (20 nM TPB, similar to the control group, immunocytochemistry), the “insulin and glucagon co-expression” value is “most cells co-expressed insulin and glucagon”. Further, the “number of single insulin-expressing cells” value in assay [3] (500 nM and 100 nM TPB treatment groups, immunocytochemistry) is “Significant increases”. In assay [3] (TPB 100 nM, FACS), the “INS, percentage of the total cell population” value is recorded as 14.4%; the “NKX6.1, percentage” value turned out to be 34.8%; the “NKX6.1/INS, percentage of the total cell population” value came to 3.1%; the “Synaptophysin, percentage” value is reported as 47.6%. Moreover, in assay [3] (TPB 500 nM, FACS), the “INS, percentage of the total cell population” value came to 9.4%; the “NKX6.1, percentage” value was 45.7%; the “NKX6.1/INS, percentage of the total cell population” value is 2.4%; the “Synaptophysin, percentage” value was found to be 38.3%. Also, in assay [3] (setting [10]), the “single insulin expressing cells” value came out at 12% and the “single insulin expressing population that also expressed NKX6.1” value was found to be 15%. Also, the NKX6.1 by immunohistochemistry entry in assay [4] (100 nM TPB at Stage 3 for four days (T2)) is on record as “undetectable”. Also, in assay [4] (setting [11]), the “expression of NKX6.1” value is recorded as “significant down-regulation”, the “expression of PDX1” value is listed as “significant down-regulation” and the “expression of PTF1 alpha” value is given as “significant down-regulation”. In addition, the insulin-expressing cells entry in assay [5] (500 nM at Stage 4 for six days with Noggin and ALK5 inhibitor II, vs control without it, immunocytochemistry) is “increase”. Moreover, in assay [5] (500 nM at Stage 4 for six days, share of insulin expressing cells), the “insulin expressing cells that are single endocrine hormone expressing cells (no glucagon, somatostatin, ghrelin)” value is listed as “about 60%”.
